{"source": "paper PMC5603573", "about": "“Cyclipostins and Cyclophostin analogs as promising compounds in the fight against tuberculosis” (Scientific Reports, 2017)", "key": {"M. tb mc^26230-LipH": {"system": "M. tb mc^26230-LipH", "experiment": "microbe, parasite or virus in culture", "assay_type": "cell-based, Mycobacterium tuberculosis", "conditions": "for MIC50: REMA"}, "M. tb mc^26230-Ag85C": {"system": "M. tb mc^26230-Ag85C", "experiment": "microbe, parasite or virus in culture", "assay_type": "cell-based, Mycobacterium tuberculosis"}, "M. tb mc^26230-Ag85A": {"system": "M. tb mc^26230-Ag85A", "experiment": "microbe, parasite or virus in culture", "assay_type": "cell-based, Mycobacterium tuberculosis"}, "M. tb mc^26230 WT": {"system": "M. tb mc^26230 WT", "experiment": "microbe, parasite or virus in culture", "assay_type": "cell-based"}, "[1]": {"system": "M. tb mc^26230-empty vector", "experiment": "REMA, empty vector strain", "assay_type": "cell-based, Mycobacterium tuberculosis"}, "M. tb mc^26230-Rv0183": {"system": "M. tb mc^26230-Rv0183", "experiment": "microbe, parasite or virus in culture", "assay_type": "cell-based, Mycobacterium tuberculosis"}, "M. tb mc^26230-HsaD": {"system": "M. tb mc^26230-HsaD", "experiment": "microbe, parasite or virus in culture", "assay_type": "cell-based, Mycobacterium tuberculosis", "conditions": "for MIC50: REMA"}, "M. tb mc^26230-TesA": {"system": "M. tb mc^26230-TesA", "experiment": "microbe, parasite or virus in culture", "assay_type": "cell-based, Mycobacterium tuberculosis"}, "[2]": {"conditions": "Mycobacterium tuberculosis, REMA"}}, "note": "Like-named read-outs stand apart in the source and are kept apart here."}
{"compound": "CCCCCCCCCCCCCCCCOP1(=O)OCCC(C(=O)OC)=C(C)O1", "note": "(stereo not drawn) [CyC 17]", "values": [{"measurement": "increase in the MIC50 value compared to WT strain", "setting": "M. tb mc^26230-LipH", "result": "around 1.3 fold"}, {"measurement": "MIC50 ratio mutant/WT", "setting": "M. tb mc^26230-LipH; M. tb mc^26230-LipH", "result": 1.31}, {"measurement": "MIC50", "setting": "M. tb mc^26230-LipH; M. tb mc^26230-LipH", "result": "0.72 ± 0.020", "unit": "µM"}, {"measurement": "MIC50", "setting": "M. tb mc^26230-LipH; Mycobacterium tuberculosis, M. tb mc^26230-LipH, read-out: MIC50", "result": "0.72 ± 0.02", "unit": "µM"}, {"measurement": "MIC50 ratio mutant/WT", "setting": "M. tb mc^26230-Ag85C", "result": 0.98}, {"measurement": "MIC50", "setting": "M. tb mc^26230-Ag85C; [2]", "result": "0.54 ± 0.009", "unit": "µM"}, {"measurement": "MIC50 ratio mutant/WT", "setting": "M. tb mc^26230-Ag85A", "result": 1.00}, {"measurement": "MIC50", "setting": "M. tb mc^26230-Ag85A; [2]", "result": "0.55 ± 0.014", "unit": "µM"}, {"measurement": "MIC50 ratio mutant/WT", "setting": "M. tb mc^26230 WT", "result": 1.00}, {"measurement": "MIC50 ratio mutant/WT", "setting": "[1]", "result": 0.95}, {"measurement": "MIC50 ratio mutant/WT", "setting": "M. tb mc^26230-Rv0183; M. tb mc^26230-Rv0183", "result": 0.80}, {"measurement": "MIC50", "setting": "M. tb mc^26230-Rv0183; Mycobacterium tuberculosis, M. tb mc^26230-Rv0183, REMA", "result": "0.44 ± 0.013", "unit": "µM"}, {"measurement": "increase in MIC50 value compared to WT strain", "setting": "M. tb mc^26230-HsaD", "result": 2.2, "unit": "fold"}, {"measurement": "MIC50 ratio mutant/WT", "setting": "M. tb mc^26230-HsaD; M. tb mc^26230-HsaD", "result": 2.18}, {"measurement": "MIC50", "setting": "M. tb mc^26230-HsaD; M. tb mc^26230-HsaD", "result": "1.20 ± 0.026", "unit": "µM"}, {"measurement": "MIC50", "setting": "M. tb mc^26230-HsaD; Mycobacterium tuberculosis, M. tb mc^26230-HsaD, read-out: MIC50", "result": "1.2 ± 0.026", "unit": "µM"}, {"measurement": "MIC50 ratio mutant/WT", "setting": "M. tb mc^26230-TesA", "result": 0.95}, {"measurement": "MIC50", "setting": "M. tb mc^26230-TesA; [2]", "result": "0.52 ± 0.012", "unit": "µM"}]}
